Tests used:
Assay in all cases: relative viability (nuclei count vs DMSO), 5 days (fraction); higher = more cells survive
Sulindac + Phenformin = compound: CC1=C(CC(=O)O)c2cc(F)ccc2/C1=C\c1ccc([S+](C)[O-])cc1 [Sulindac] + N=C(N)NC(=N)NCCc1ccccc1 [Phenformin] (partner 250 µM)
Summary of the method: (§1)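 Nuclei were stained with Hoechst during a one-step fixation (final 0.05% Triton X-100, 1% formaldehyde, 1 ug/ml Hoechst) carried out 5 days after dosing, then counted on 4× images. The cells, lung cancer lines in 1536-well plates, had been dosed by pin tool the day after seeding with one drug alone or a fixed anchor-drug dose plus five library-drug doses (not always all listed) in √10 steps. Relative viability is the nuclei count in treated wells divided by that in vehicle wells, and each value is the median of duplicate plates.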

[1] = compound: CN[C@@H]1C[C@H]2O[C@@](C)([C@@H]1OC)n1c3ccccc3c3c4c(c5c6ccccc6n2c5c31)C(=O)NC4 [Staurosporine] + CCNC(=O)c1noc(-c2cc(C(C)C)c(O)cc2O)c1-c1ccc(CN2CCOCC2)cc1 [Luminespib] (partner 0.01 µM)
Summary of the method: as §1

[2] = compound: CN[C@@H]1C[C@H]2O[C@@](C)([C@@H]1OC)n1c3ccccc3c3c4c(c5c6ccccc6n2c5c31)C(=O)NC4 [Staurosporine] + C[C@@H](Oc1cc(-c2cnn(C3CCNCC3)c2)cnc1N)c1c(Cl)ccc(F)c1Cl [Crizotinib] (partner 1 µM)
Summary of the method: as §1

[3] = compound: O=c1[nH]cc(F)c(=O)[nH]1 [5-Fluorouracil] + CS(=O)(=O)CCNCc1ccc(-c2ccc3ncnc(Nc4ccc(OCc5cccc(F)c5)c(Cl)c4)c3c2)o1 [Lapatinib] (partner 2 µM)
Summary of the method: as §1

Cell Line	relative viability (Sulindac + Phenformin; first compound 0.08 µM)	relative viability (Sulindac + Phenformin; first compound 0.253 µM)	relative viability (Sulindac + Phenformin; first compound 0.8 µM)	relative viability (Sulindac + Phenformin; first compound 2.53 µM)	relative viability (Sulindac + Phenformin; first compound 8 µM)	relative viability ([1]; first compound 0.005 µM)	relative viability ([1]; first compound 0.01581 µM)	relative viability ([1]; first compound 0.05 µM)	relative viability ([1]; first compound 0.1581 µM)	relative viability ([1]; first compound 0.5 µM)	relative viability ([2]; first compound 0.005 µM)	relative viability ([2]; first compound 0.05 µM)	relative viability ([2]; first compound 0.1581 µM)	relative viability ([2]; first compound 0.5 µM)	relative viability ([3]; first compound 0.02 µM)	relative viability ([3]; first compound 0.2 µM)	relative viability ([3]; first compound 0.6325 µM)	relative viability ([3]; first compound 2 µM)	relative viability ([2]; first compound 0.01581 µM)
LXF-289	0.551	0.559	0.491	0.517	0.559	0.584	0.13	0.246	0.0904	0.0899	0.751	0.258	0.0796	0.0672	0.897	0.782	0.333	0.285	–
NCI-H23	0.819	–	0.61	0.819	0.824	0.215	0.204	0.181	0.163	0.156	0.296	0.193	0.176	0.125	1.11	1.09	0.545	0.268	0.234
NCI-H322M	0.881	0.833	0.668	0.762	0.879	0.631	–	0.259	0.274	0.182	0.98	0.654	0.558	0.433	0.615	0.598	0.559	0.467	0.666
NCI-H441	0.992	1.03	0.456	0.808	0.958	0.36	0.216	0.195	0.231	0.148	0.8	0.3	0.179	0.156	–	–	–	–	0.29
NCI-H522	0.709	0.715	0.689	0.688	0.674	1.2	1.14	0.719	0.758	0.751	–	–	–	–	–	–	–	–	–
NCI-H1299	–	–	–	–	–	–	–	–	–	–	0.516	0.55	0.163	0.142	1.05	0.978	0.959	0.817	0.385
NCI-H1395	0.427	0.448	0.478	0.44	0.526	0.613	0.507	0.349	0.318	0.346	–	–	–	–	0.724	1.12	1.01	0.825	–
NCI-H1623	0.561	0.595	0.663	0.632	0.6	0.55	0.531	0.401	0.419	0.296	–	–	–	–	–	–	–	–	–
NCI-H1703	–	–	–	–	–	–	–	–	–	–	0.483	0.093	0.133	0.0695	1.23	1.44	1.09	0.556	0.253
NCI-H1793	0.404	0.396	0.272	0.372	0.333	0.252	–	0.188	0.131	0.13	–	–	–	–	0.581	0.853	0.471	0.347	–
NCI-H2342	0.647	0.594	0.475	0.546	0.625	0.843	0.69	0.49	0.47	0.334	–	–	–	–	–	–	–	–	–
SW 900	–	0.723	–	0.563	0.606	0.164	0.149	0.134	0.14	0.161	–	–	–	–	–	–	–	–	–
